# Results as given in patent EP0065226A2, “Sulfenamides, process for their preparation, their utilisation as medicines and their preparation” (BAYER AG, priority 1981, dated 1982).
# Test system: Leukozytenmigration
# Assay: Inhibition of leukocyte migration, drug-soaked sponge implanted under the dorsal skin of rats
# Type: in vivo, Ratten
# Settings: Dosis, lokal 10 mg/Ratte; sponge soaked with compound under the dorsal skin
# Text: Die erfindungsgemäßen Sulfenamide sind auch […] wirksam. Diese Wirkung wird durch die Messung der Hemmung der Leukozytenmigration nach an sich bekannten Methoden nachgewiesen (vgl. Higgs et al., Biochemical Pharmacology 28, 1959 (1979) und Eur. J. Pharmacol. 66, 81 (1980)). In der nachfolgenden Tabelle 2 sind die Wirkungen einiger beispielhafter Sulfenamide nach lokaler Applikation, durch Einführen eines mit Wirkstoff getränkten Schwämmchens unter die Rückenhaut von Ratten, zusammengefaßt.
row,SMILES,Hemmung der Leukozyten-migration (Kontrolle = 0 %)
1,Cc1nsc(NSc2ccc(Cl)cc2)n1 [Beispiel 17],53%
2,Cc1nnc(NSc2ccc(Cl)cc2)s1 [Beispiel 39],60%
3,c1ccc(SNc2ncccn2)cc1 [Beispiel 2],45%
4,FC(F)(F)c1cc(SNc2nc[nH]n2)ccc1Cl [Beispiel 28],29%
5,Clc1ccc(SNc2nnc(N3CCOCC3)s2)cc1 [Beispiel 37],22%
6,Cc1nnc(NSc2ccccc2)s1 [Beispiel 25],80%
7,c1ccc(SNc2nc(-c3ccccc3)ns2)cc1 [Beispiel 12],35%
8,Cc1nsc(NSc2ccccc2)n1 [Beispiel 16],67%
9,c1ccc(SNc2nc[nH]n2)cc1 [Beispiel 11],76%
10,COC(=O)c1ccc(SNc2nc[nH]n2)cc1 [Beispiel 30],31%

# Molecular target: T1, Plättchenlipoxygenase (Homo sapiens, UniProt P18054)
# T1 construct: der Metabolismus radioaktiv markierter Arachidonsäure an gewaschenen Humanthrombozyten herangezogen; endogenous in cells; host or cells: washed human platelets
# T1 sequence (P18054 1-663): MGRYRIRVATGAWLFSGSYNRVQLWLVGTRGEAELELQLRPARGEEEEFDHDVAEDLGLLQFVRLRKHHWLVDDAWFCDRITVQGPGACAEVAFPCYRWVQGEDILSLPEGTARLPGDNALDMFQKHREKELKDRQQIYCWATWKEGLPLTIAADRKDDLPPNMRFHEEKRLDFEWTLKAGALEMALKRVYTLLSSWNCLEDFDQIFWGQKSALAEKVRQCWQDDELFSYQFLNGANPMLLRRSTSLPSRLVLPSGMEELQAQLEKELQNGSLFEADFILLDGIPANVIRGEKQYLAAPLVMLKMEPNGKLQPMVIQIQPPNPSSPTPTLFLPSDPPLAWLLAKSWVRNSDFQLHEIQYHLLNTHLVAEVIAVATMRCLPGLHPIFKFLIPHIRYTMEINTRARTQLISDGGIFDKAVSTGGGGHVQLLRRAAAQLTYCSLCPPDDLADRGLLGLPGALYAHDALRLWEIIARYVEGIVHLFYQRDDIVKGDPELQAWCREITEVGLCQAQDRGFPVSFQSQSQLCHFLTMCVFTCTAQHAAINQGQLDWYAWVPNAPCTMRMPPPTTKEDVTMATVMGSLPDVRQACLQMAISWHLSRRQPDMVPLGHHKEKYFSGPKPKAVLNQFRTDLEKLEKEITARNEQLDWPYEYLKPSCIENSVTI
# Assay: Inhibition of platelet lipoxygenase (HETE synthesis), metabolism of radiolabelled arachidonic acid in washed human platelets
# Type: cell-based
# Settings: HETE-Synthese, gewaschene Humanthrombozyten; lowest concentration giving at least 50 % inhibition
# Text: Der Nachweis der lipoxygenasehemmenden Eigenschaften der Sulfenamide erfolgt analog der Methode von Bailey et al., J. Biol. Chem. 255, 5996, (1980) und nach Blackwell und Flower, Brostaglandins 16, 417 (1979). Bei dieser Testmethode wird der Metabolismus radioaktiv markierter Arachidonsäure an gewaschenen Humanthrombozyten herangezogen. Bei diesem in vitro Test werden die radioaktiv markierten Metaboliten aus dem Reaktionsansatz extrahiert und dünnschichtchromatographisch getrennt. Das Autoradiogramm wird am Dünnschicht-Scanner ausgewertet. Bei diesen Testbedingungen werden die markierten Metaboliten von der nicht umgesetzten Arachidonsäure getrennt und sind anschließend quantitativ auswertbar. Die Verteilung der Radioaktivität auf die während der Metabolisierung gebildeten Cyclooxygenaseprodukte Thromboxan B2 (TXB2) und 12-Hydroxy-5,8,10-heptadekatriensäure (HHT) bzw. das Lipoxygenaseprodukt 12-Hydroxy-5,8,11,14-eikosatetraensäure (HETE) unter dem Einfluß der Inhibitoren stellt ein Maß für die Hemmung der Enzyme dar.
# Die Lipoxygenasehemmung der erfindungsgemäßen Sulfenamide läßt sich an der Hemmung der HETE-Synthese messen.. Es zeigt sich, daß die Synthese von TXB2und von HHT unbeeinflußt bleibt, während der Arachidonsäureumsatz abnimmt. Wie aus der nachfolgenden Tabelle ersichtlich ist, bewirken die Sulfenamide eine signifikante Hemmung der Plättchenlipoxygenase (HETE-Synthese).
# Hemmung der Plättchenlipoxygenase (HETE-Synthese)
row,SMILES,Minimale effektive Hemmkonzen-zentration (mindestens 50 % Hemmung)
1,Cc1nsc(NSc2ccc(Cl)cc2)n1 [Beispiel 17],10^-6 g/ml
2,CC(C)(C)c1ccc(SNc2ncccn2)cc1 [Beispiel 6],10^-6 g/ml
3,c1ccc(SNc2ncccn2)cc1 [Beispiel 2],10^-6 g/ml
4,CCCc1nsc(NSc2ccc(Cl)cc2)n1 [Beispiel 20],3e-06 g/mL
5,Cc1nc(NSc2ccccc2)ns1 [Beispiel 18],10^-6 g/ml
6,Clc1ccc(SNc2nc(-c3ccccc3)ns2)cc1 [Beispiel 13],10^-6 g/ml
7,Clc1ccc(SNc2ccccn2)cc1 [Beispiel 23],10^-5 g/ml
8,O=C1C(Sc2ccccc2)C(NSc2ccccc2)=NN1c1ccccc1 (stereo not drawn) [Beispiel 24],3e-06 g/mL
9,c1ccc(SNc2nc(-c3ccccc3)ns2)cc1 [Beispiel 12],3e-06 g/mL
10,Clc1ccc(SNc2nc[nH]n2)cc1 [Beispiel 10],3e-06 g/mL
11,Cc1nsc(NSc2ccccc2)n1 [Beispiel 16],3e-06 g/mL
12,CCCc1nsc(NSc2ccccc2)n1 [Beispiel 19],3e-06 g/mL
13,Clc1ccc(SNc2ncccn2)cc1 [Beispiel 5],10^-6 g/ml
14,Clc1c(Cl)c(Cl)c(SNc2ncccn2)c(Cl)c1Cl [Beispiel 4],10^-6 g/ml
